The record followed here is patent publication US20240131044A1, “METHOD FOR TREATING CANCER” (M.T.3, Inc., priority 2022, published 2024).

This assay deals with soft tissue sarcoma developing cells (STSA-1). Put plainly: Colony formation, survival fraction of canine soft tissue sarcoma cells. The class given is cell-based. The protocol: An anti-cancer agent and a pharmaceutical composition were administered to test cells and then the cells were cultured. Then, after colonies were formed, the number of colonies was counted. Here, samples in which the concentration of the anti-cancer agent to be administered was varied were prepared, and in each sample, the survival fraction of the cells compared with the case where cells were cultured without administration of the pharmaceutical composition was measured. Regarding the type of anti-cancer agent to be administered, a predetermined anti-cancer agent was selected depending on the type of administration target cells. Note that cells that were cultured without administration of the pharmaceutical composition and the anti-cancer agent were used as a control. Hereinafter, these steps will be described.
Here, CHO cells, V79 cells, and canine-derived cancer cells were prepared as the test cells. The CHO cells are ovarian cells derived from Chinese hamsters, and the V79 cells are fibroblasts derived from the lungs of Chinese hamsters. Melanoma developing cells (CML6M) and soft tissue sarcoma developing cells (STSA-1) were used as the cancer cells.
The cancer cells were prepared by being cultured using an αMEM culture medium supplemented with 10% serum and an antibiotic. The cancer cells were prepared such that, when the concentration of the cells in a cell suspension obtained by subjecting the cultured cells to PBS washing and trypsin treatment, the concentration was within a predetermined concentration range. Here, the predetermined concentration ranges were 300 cells/well, 100 to 150 cells/well, and 500 to 1000 cells/well for the CHO/V79 cells, the melanoma cells, and the soft tissue sarcoma cells, respectively.
Next, the cancer cells were cultured in culture environments to which the anti-cancer agent was added at various concentrations, and were then allowed to form colonies. The culture periods for colony formation were a week, 10 days, and 14 days for CHO and V79, melanoma, and soft tissue sarcoma, respectively. After colonies were formed, washing using a physiological saline solution, fixation using 100% ethanol, and staining using 0.1% crystal violet were performed, and then the number of colonies per well was counted under a microscope. Note that, here, the colony was defined as containing 50 or more cells. Moreover, mitomycin C, doxorubicin, bleomycin, camptothecin, etoposide, taxol, methyl methanesulfonate, and cisplatin were used as the anti-cancer agent.
A graph with the horizontal axis representing the concentration of the anti-cancer agent and the vertical axis representing the survival fraction was created by plotting the survival fraction measurement results relative to the SQAP administration amounts, and the effect of the addition of SQAP on the survival fraction was examined. Hereinafter, the results from each anti-cancer agent will be shown in a table and described.
Canine-derived melanoma cells and soft tissue sarcoma cells were used as the cells, and doxorubicin was used as the anti-cancer agent. The amount of the doxorubicin administered to the melanoma cell was set to 0 nM, 5 nM, 10 nM, 15 nM, 20 nM, and 25 nM. […] In Table 2, survival fractions in the case where SQAP was not administered are shown with a solid line, survival fractions in the case where SQAP was administered at a concentration of 10 μM are shown with a broken line, survival fractions in the case where SQAP was administered at a concentration of 20 μM are shown with a 1-dot chain line, and survival fractions in the case where SQAP was administered at a concentration of 30 μM are shown with a 2-dot chain line.
In the above examples, the anti-cancer agent and the pharmaceutical composition were administered to the test cells and then the cells were cultured. […]

Turning to `CCCCCCCCCCCCCCCCCC(=O)OCCCO[C@H]1O[C@H](CS(=O)(=O)O)[C@@H](O)[C@H](O)[C@H]1O` [SQAP, sulfoquinovosylacylpropanediol], the survival fraction result (soft tissue sarcoma cells, doxorubicin 10 nM + SQAP 10 μM) is on record as “about 2%”; the survival fraction result (soft tissue sarcoma cells, doxorubicin 10 nM + SQAP 20 μM) is “about 2%”; the survival fraction result (soft tissue sarcoma cells, doxorubicin 10 nM + SQAP 30 μM) is given as “about 0.7%”; the survival fraction result (soft tissue sarcoma developing cells, SQAP 10 μM alone) is recorded as “about 90%”; the survival fraction entry (soft tissue sarcoma developing cells, SQAP 20 μM alone) is “about 75%”; the survival fraction entry (soft tissue sarcoma developing cells, SQAP 30 μM alone) was “about 45%”. Moreover, the survival fraction result was “about 2%” (soft tissue sarcoma developing cells, doxorubicin 10 μM + SQAP 10 μM (as restated in Example 10)); “about 2%” (soft tissue sarcoma developing cells, doxorubicin 10 μM + SQAP 20 μM (as restated in Example 10)); “about 0.7%” (soft tissue sarcoma developing cells, doxorubicin 10 μM + SQAP 30 μM (as restated in Example 10)).
